Holding throughout (type): cell-based
Assay [1] has as its system A431 (EGFR-WT). Kind of assay: Proliferation experiment, A431 cell line (CellTiter-Glo). As to conditions: Homo sapiens, A-431; A431 cells, cultured for 72 hrs with compound, CTG analysis.
Assay [2] has as its target Ba/F3 EGFR-D770-N771ins_SVD (Homo sapiens, UniProt P00533, DUP768-770, cells depend on it). Kind of assay: Proliferation experiment of Ba/F3 cell line, EGFR-D770-N771ins_SVD (CellTiter-Glo). The following applies: cultured for 72 hrs with compound, CTG analysis, read-out: Ba/F3 EGFR-D770-N771ins_SVD IC50. The gist of the method:
(§1)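 […] Ba/F3 cells expressing EGFR insertion mutants treated 72 h at 37 °C with 9 concentrations, 3.16-fold dilutions, top 10 μM, 0.1% DMSO, in triplicate. Viability by CellTiter-Glo luminescence with T0 reference plate; IC50 (nM) from non-linear dose-response fit.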
For orientation: In ATP-based viability assays light output follows the ATP content of the culture.

Assay [3] addresses Ba/F3 EGFR-V769_D770insASV (Homo sapiens, UniProt P00533, DUP767-769, cells depend on it). Put plainly: Proliferation experiment of Ba/F3 cell line, EGFR-V769_D770insASV (CellTiter-Glo). As to conditions: cultured for 72 hrs with compound, CTG analysis, read-out: Ba/F3 EGFR-V769_D770insASV IC50. The essentials: as §1

pIC50: −log10 of the molar value.

Sequence of Ba/F3 EGFR-D770-N771ins_SVD (P00533 with tags, fused parts or gaps DUP768-770): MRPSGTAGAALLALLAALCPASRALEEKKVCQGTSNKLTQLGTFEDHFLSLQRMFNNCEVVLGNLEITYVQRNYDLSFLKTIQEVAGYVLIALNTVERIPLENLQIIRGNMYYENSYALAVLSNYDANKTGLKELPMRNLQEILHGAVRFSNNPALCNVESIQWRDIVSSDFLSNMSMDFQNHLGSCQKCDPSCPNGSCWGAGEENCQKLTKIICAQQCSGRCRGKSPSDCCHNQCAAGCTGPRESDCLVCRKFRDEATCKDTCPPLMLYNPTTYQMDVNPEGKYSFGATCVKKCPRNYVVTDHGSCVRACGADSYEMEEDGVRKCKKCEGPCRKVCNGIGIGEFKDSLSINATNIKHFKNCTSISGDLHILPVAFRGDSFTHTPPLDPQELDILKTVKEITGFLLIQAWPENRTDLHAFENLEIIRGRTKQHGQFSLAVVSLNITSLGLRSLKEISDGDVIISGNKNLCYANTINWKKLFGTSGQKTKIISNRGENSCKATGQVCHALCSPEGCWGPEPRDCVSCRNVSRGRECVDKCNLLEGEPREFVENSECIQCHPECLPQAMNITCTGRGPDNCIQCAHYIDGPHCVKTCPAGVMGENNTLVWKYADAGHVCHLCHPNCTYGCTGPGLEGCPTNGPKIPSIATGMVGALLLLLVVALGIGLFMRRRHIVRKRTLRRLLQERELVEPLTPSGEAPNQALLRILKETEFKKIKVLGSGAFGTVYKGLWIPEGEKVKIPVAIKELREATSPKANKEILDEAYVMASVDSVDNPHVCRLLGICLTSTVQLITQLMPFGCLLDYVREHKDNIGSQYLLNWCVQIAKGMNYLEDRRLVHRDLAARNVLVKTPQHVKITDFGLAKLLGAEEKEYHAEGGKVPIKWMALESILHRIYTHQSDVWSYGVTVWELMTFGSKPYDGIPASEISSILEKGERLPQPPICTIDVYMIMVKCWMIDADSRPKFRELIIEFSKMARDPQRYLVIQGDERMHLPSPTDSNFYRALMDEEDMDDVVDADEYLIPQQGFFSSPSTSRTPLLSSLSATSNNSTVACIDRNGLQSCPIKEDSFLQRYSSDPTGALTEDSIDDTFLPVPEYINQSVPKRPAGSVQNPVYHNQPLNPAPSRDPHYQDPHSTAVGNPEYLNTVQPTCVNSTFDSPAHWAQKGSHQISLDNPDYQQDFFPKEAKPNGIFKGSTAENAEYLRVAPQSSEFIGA
Sequence of Ba/F3 EGFR-V769_D770insASV (P00533 with tags, fused parts or gaps DUP767-769): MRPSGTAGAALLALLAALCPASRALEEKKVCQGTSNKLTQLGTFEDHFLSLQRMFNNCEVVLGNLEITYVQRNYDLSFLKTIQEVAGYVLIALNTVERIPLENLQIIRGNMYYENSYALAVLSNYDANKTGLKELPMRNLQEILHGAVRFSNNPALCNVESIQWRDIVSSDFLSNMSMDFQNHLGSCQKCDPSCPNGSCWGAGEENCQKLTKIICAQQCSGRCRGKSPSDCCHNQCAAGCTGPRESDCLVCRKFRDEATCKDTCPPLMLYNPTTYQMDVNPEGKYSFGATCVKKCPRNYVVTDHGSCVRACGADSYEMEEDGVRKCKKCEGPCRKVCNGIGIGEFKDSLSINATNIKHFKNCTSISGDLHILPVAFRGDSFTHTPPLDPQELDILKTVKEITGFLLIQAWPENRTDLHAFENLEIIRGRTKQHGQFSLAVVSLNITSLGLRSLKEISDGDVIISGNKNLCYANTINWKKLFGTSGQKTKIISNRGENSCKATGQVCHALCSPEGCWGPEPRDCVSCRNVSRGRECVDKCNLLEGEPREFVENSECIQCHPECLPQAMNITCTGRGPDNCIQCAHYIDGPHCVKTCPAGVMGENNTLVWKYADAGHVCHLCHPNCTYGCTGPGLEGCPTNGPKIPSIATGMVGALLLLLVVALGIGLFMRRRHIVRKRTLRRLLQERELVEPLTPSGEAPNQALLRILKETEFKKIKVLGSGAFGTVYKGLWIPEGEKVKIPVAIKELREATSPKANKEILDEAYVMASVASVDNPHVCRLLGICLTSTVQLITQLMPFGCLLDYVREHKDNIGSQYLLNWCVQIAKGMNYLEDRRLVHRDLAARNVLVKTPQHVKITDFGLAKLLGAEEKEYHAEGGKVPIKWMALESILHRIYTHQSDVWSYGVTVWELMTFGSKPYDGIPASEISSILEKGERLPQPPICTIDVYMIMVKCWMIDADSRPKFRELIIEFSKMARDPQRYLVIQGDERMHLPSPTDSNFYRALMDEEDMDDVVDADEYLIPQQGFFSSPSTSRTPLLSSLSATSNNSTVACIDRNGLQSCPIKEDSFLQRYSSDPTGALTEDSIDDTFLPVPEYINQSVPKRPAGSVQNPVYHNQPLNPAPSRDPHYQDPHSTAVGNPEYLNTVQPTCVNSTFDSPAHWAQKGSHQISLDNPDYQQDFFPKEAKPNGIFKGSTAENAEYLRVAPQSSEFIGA

The pIC50 is the negative decadic logarithm of the IC50, by convention in mol/L. Take `C=CC(=O)Nc1cc2c(Nc3cccc(-c4ncccc4F)c3)ncnc2cc1OCCCN1CCN(C)CC1` [Example 44, N-(4-((3-(3-fluoropyridin-2-yl)phenyl)amino)-7-(3-(4-methylpiperazin-1-yl)propoxy)quinazolin-6-yl)acrylamide]: in assay [1], the pIC50 was 7.08. Further, the GI50 in assay [2] stood at 13.9 nM; in assay [3], 29.3 nM.
The matching figures for `C=CC(=O)Nc1cc2c(Nc3cccc(-c4ccccc4F)c3)ncnc2cc1OCCCN1CCOCC1` [Example 45, N-(4-((2′-fluoro-[1,1′-biphenyl]-3-yl)amino)-7-(3-morpholinopropoxy)quinazolin-6-yl)acrylamide]: 7.18, 17 nM and 27 nM.
The matching figures for `C=CC(=O)Nc1cc2c(Nc3cccc(-c4ccccc4F)c3)ncnc2cc1OCCCN1CCN(C)CC1` [Example 46, N-(4-((2′-fluoro-[1,1′-biphenyl]-3-yl)amino)-7-(3-(4-methylpiperazin-1-yl)propoxy)quinazolin-6-yl)acrylamide]: 6.92, 11.9 nM and 15.8 nM.
As to `C=CC(=O)Nc1cc2c(Nc3ccc(F)c(-c4ccccc4)c3)ncnc2cc1OCCCN1CCOCC1` [Example 47, N-(4-((6-fluoro-[1,1′-biphenyl]-3-yl)amino)-7-(3-morpholinopropoxy)quinazolin-6-yl)acrylamide], the pIC50 in assay [1] was 6.72. Moreover, the GI50 in assay [2] was 29.5 nM; in assay [3], 41.4 nM.
The corresponding values for `C=CC(=O)Nc1cc2c(Nc3ccc(F)c(-c4ccccc4)c3)ncnc2cc1OCCCN1CCN(C)CC1` [Example 48, N-(4-((6-fluoro-[1,1′-biphenyl]-3-yl)amino)-7-(3-(4-methylpiperazin-1-yl)propoxy)quinazolin-6-yl)acrylamide] are 7.59, 14.5 nM and 41.4 nM.
The corresponding values for `C=CC(=O)Nc1cc2c(Nc3ccc(F)c(-c4ccccn4)c3)ncnc2cc1OCCCN1CCOCC1` [Example 49, N-(4-((4-fluoro-3-(pyridin-2-yl)phenyl)amino)-7-(3-morpholinopropoxy)quinazolin-6-yl)acrylamide] are 6.42, 28.6 nM and 59.1 nM.
The corresponding values for `C=CC(=O)Nc1cc2c(Nc3ccc(F)c(-c4ccccn4)c3)ncnc2cc1OCCCN1CCN(C)CC1` [Example 50, N-(4-((4-fluoro-3-(pyridin-2-yl)phenyl)amino)-7-(3-(4-methylpiperazin-1-yl)propoxy)quinazolin-6-yl)acrylamide] are 7.32, 23.3 nM and 37.9 nM.
`C=CC(=O)Nc1cc2c(Nc3cccc(-n4cccn4)c3)ncnc2cc1OCCCN1CCN(C)CC1` [Example 53, N-(4-((3-(1H-pyrazol-1-yl)phenyl)amino)-7-(3-(4-methylpiperazin-1-yl)propoxy)quinazolin-6-yl)acrylamide]: in assay [1], the pIC50 is 6.47. Besides, the GI50 stood at 11.4 nM in assay [2] and 22.3 nM in assay [3].
Consider `C=CC(=O)Nc1cc2c(Nc3cccc(-n4nccn4)c3)ncnc2cc1OCCCN1CCN(C)CC1` [Example 56, N-(4-((3-(2H-1,2,3-triazol-2-yl)phenyl)amino)-7-(3-(4-methylpiperazin-1-yl)propoxy)quinazolin-6-yl)acrylamide], for which the pIC50 in assay [1] was 6.45. Also, the figures for the GI50 in assay [2] and in assay [3] were 11.4 nM and 22.6 nM, respectively.
The matching figures for `C=CC(=O)Nc1cc2c(Nc3cncc(-c4ccccc4F)c3)ncnc2cc1OCCN1CCOCC1` [Example 57, N-(4-((5-(2-fluorophenyl)pyridin-3-yl)amino)-7-(2-morpholinoethoxy)quinazolin-6-yl)acrylamide]: 5.97, 10.8 nM and 28.7 nM.
The matching figures for `C=CC(=O)Nc1cc2c(Nc3cncc(-c4ccccc4F)c3)ncnc2cc1OCCCN1CCOCC1` [Example 58, N-(4-((5-(2-fluorophenyl)pyridin-3-yl)amino)-7-(3-morpholinopropoxy)quinazolin-6-yl)acrylamide]: 6.08, 5.1 nM and 13.6 nM.
The matching figures for `C=CC(=O)Nc1cc2c(Nc3cncc(-c4ccccc4F)c3)ncnc2cc1OCCCN1CCN(C)CC1` [Example 59, N-(4-((5-(2-fluorophenyl)pyridin-3-yl)amino)-7-(3-(4-methylpiperazin-1-yl)propoxy)quinazolin-6-yl)acrylamide]: 6.65, 4.2 nM and 11.2 nM.
`C=CC(=O)Nc1cc2c(Nc3cncc(-c4c(F)cccc4F)c3)ncnc2cc1OCCCN1CCN(C)CC1` [Example 62, N-(4-((5-(2,6-difluorophenyl)pyridin-3-yl)amino)-7-(3-(4-methylpiperazin-1-yl)propoxy)quinazolin-6-yl)acrylamide]: in assay [1], the pIC50 was 6.46. The GI50 in assay [2] worked out at 11 nM; in assay [3], 23.6 nM.
The corresponding values for `C=CC(=O)Nc1cc2c(Nc3cncc(-c4ccccc4F)c3)ncnc2cc1O[C@@H]1CCN(C)C1` [Example 63, (R)-N-(4-((5-(2-fluorophenyl)pyridin-3-yl)amino)-7-((1-methylpyrrolidin-3-yl)oxy)quinazolin-6-yl)acrylamide] are 6.01, 14.1 nM and 38.1 nM.
Turning to `C=CC(=O)Nc1cc2c(Nc3cncc(-c4c(F)cccc4F)c3)ncnc2cc1O[C@@H]1CCN(C)C1` [Example 64, (R)-N-(4-((5-(2,6-difluorophenyl)pyridin-3-yl)amino)-7-((1-methylpyrrolidin-3-yl)oxy)quinazolin-6-yl)acrylamide], the negative logarithm of the IC50 (pIC50) in assay [1] is 6.00. Further, the GI50 in assay [2] was 34.5 nM; in assay [3] it was 63.6 nM.
The corresponding values for `C=CC(=O)Nc1cc2c(Nc3ccnc(-c4ccccc4F)c3)ncnc2cc1O[C@@H]1CCN(C)C1` [Example 65, (R)—N-(4-((2-(2-fluorophenyl)pyridin-4-yl)amino)-7-((1-methylpyrrolidin-3-yl)oxy)quinazolin-6-yl)acrylamide] are 6.54, 4.1 nM and 7.9 nM.
The corresponding values for `C=C(F)C(=O)Nc1cc2c(Nc3ccnc(-c4ccccc4F)c3)ncnc2cc1O[C@@H]1CCN(C)C1` [Example 66, (R)-2-fluoro-N-(4-((2-(2-fluorophenyl)pyridin-4-yl)amino)-7-((1-methylpyrrolidin-3-yl)oxy)quinazolin-6-yl)acrylamide] are 7.99, 5.9 nM and 6.5 nM.
The corresponding values for `CN(C)C/C=C/C(=O)Nc1cc2c(Nc3ccnc(-c4ccccc4F)c3)ncnc2cc1O[C@@H]1CCN(C)C1` [Example 67, (R,E)-4-(dimethylamino)-N-(4-((2-(2-fluorophenyl)pyridin-4-yl)amino)-7-((1-methylpyrrolidin-3-yl)oxy)quinazolin-6-yl)but-2-enamide] are 7.68, 9.5 nM and 11.5 nM.
Consider `C=CC(=O)Nc1cc2c(Nc3ccnc(-c4ccccc4F)c3)ncnc2cc1OCCN1CCOCC1` [Example 68, N-(4-((2-(2-fluorophenyl)pyridin-4-yl)amino)-7-(2-morpholinoethoxy)quinazolin-6-yl)acrylamide], for which the pIC50 in assay [1] is 7.71. Besides, the GI50 in assay [2] turned out to be 1.3 nM; in assay [3] it was 2.5 nM.

For the origin of these results see patent US12649727B2, “EFGR inhibitor, preparation method therefor and application thereof” (Abbisko Therapeutics Co., Ltd, priority 2020, dated 2026).
